Measurements: PubChem BioAssay AID463074 (Broad Institute, 2010)
Calls of active or inactive are those of the source.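 How the source made its calls: active means AC50 no more than tenfold above the top dose tested, or full inhibition at every dose with a flat fit (cut at about 19 µM in these data); inconclusive means flat curve fit with inhibition between 30% and 70%, or poor fit; inactive means AC50 more than tenfold above the top dose tested.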

System: HMLE_sh_eGFP viability, CellTiter-Glo luminescence, 72 h
Experiment: cytotoxicity in HMLE control line with eGFP shRNA, dose response, counter-screen for HMLE_sh_ECad selective toxicity project, cell-based, HMLE_sh_eGFP, luminescence (AID 463074);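 further: counterscreen control line to flag general toxicity for the HMLE_sh_ECad screen; potency for loss of viability as luminescence drops below DMSO wells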

O=c1cc(-c2ccccc2)[nH]n1-c1ccc([N+](=O)[O-])cc1
AC50: 8.23 µM

Cc1ccc(NNC(=O)c2cccs2)cc1Cl
AC50: 2.19 µM

CCc1cc2ccc(C)cc2nc1SCC(=O)c1ccc(NC(C)=O)cc1
AC50: 9.7 µM

C/C(=N\NC(=O)c1cc(C)nc2ccccc12)c1ccccn1
AC50: 13.1 µM

O=C(Oc1ccc(-c2nc(-c3ccccn3)no2)cc1)c1ccccc1
AC50: 1.63 µM

CN(C)N1C(N)=C(C#N)C(c2cccc3ccccc23)C2=C1CC(c1ccccc1)CC2=O (stereo unspecified)
AC50: 1.02 µM

CC(=O)c1ccc(NC(=O)c2ccc([N+](=O)[O-])o2)cc1
AC50: 7.8 µM

COc1cccc(-c2cc(=O)c3cc(NC(=O)c4ccc(N(C)C)cc4)ccc3[nH]2)c1
AC50: 0.559 µM

CN(CC(O)CON=C1c2ccccc2-c2ccccc21)S(=O)(=O)c1ccc(Br)cc1 (stereo unspecified)
AC50: 4.4 µM

CCCCCCc1cc2cc(S(=O)(=O)c3ccc(Cl)cc3)c(=O)oc2cc1O
AC50: 9.25 µM

COc1cc(/C=C(\C#N)C(=O)NC2CCCCC2C)ccc1OS(=O)(=O)c1ccc(C)cc1 (stereo unspecified)
AC50: 6.69 µM

O=[N+]([O-])c1cccc(C2NCC(c3ccccc3Cl)c3c2[nH]c2ccccc32)c1 (stereo unspecified)
AC50: 6.75 µM

O=C(Nc1cc(C(F)(F)F)cc(C(F)(F)F)c1)Nc1cnn(-c2ccc([N+](=O)[O-])cc2)c1C(F)(F)F
AC50: 0.848 µM

CCOc1ccccc1N(C(=O)Nc1ccc(Cl)cc1)C1=NCCS1
AC50: > 19.5 µM (inactive)

COc1ccc(/C=N/NC(=O)c2cc(C34CC5CC(CC(C5)C3)C4)[nH]n2)cc1O
AC50: 1.8 µM

CC(=O)c1ccc(-c2ccc([C@H]3[C@@H]4C=CCC[C@@]4(C)C(=O)N3Cc3ccccc3)c(F)c2)cc1
AC50: 4.17 µM

CCn1c2ccccc2c2cc(NC(=O)c3cc(OC)cc(OC)c3)ccc21
AC50: 0.258 µM

CCCCCCSc1cccc(-c2nc3ccccn3c2NCc2ccccc2)c1
AC50: 5.27 µM

Cc1ccc(C=Nc2ccccc2C(N)=O)s1
AC50: 2.79 µM

CCOC(=O)Nc1ccc2nc(Sc3ccc(Cl)cc3)sc2c1
AC50: 2.97 µM

CCC/C=C(\CCC)C(NS(=O)(=O)c1ccc(C(F)(F)F)cc1)c1ccccc1 (stereo unspecified)
AC50: 3.93 µM

CC1=C(CO)C(=O)OC([C@@H](C)C2CC[C@H]3C4C[C@H]5O[C@]56[C@@H](O)C=CC(=O)[C@]6(C)C4CC[C@]23C)C1 (stereo partly specified)
AC50: 1.62 µM

O=C(Nc1ccc(O)cc1)c1ccc(NC(=O)c2cccs2)cc1
AC50: 10 µM

O=C(NC12CC3CC(CC(C3)C1)C2)c1ccc(-c2ccccc2Cl)o1
AC50: 3.81 µM

COc1ccc(/C=C/C(=O)c2ccccc2)cc1Cn1nnc2ccccc21
AC50: 6.28 µM

Cc1ccc(/C=N/NC(=O)CNC(=O)COc2ccccc2)o1
AC50: > 19.5 µM (inactive)

Cc1ccc(/C=C\c2nccc3c2[nH]c2ccccc23)cc1
AC50: 13.2 µM

Cc1cc(C)nc(NC(=O)/C=C/c2cccs2)c1
AC50: > 19.5 µM (inactive)

COc1ccc(C(=O)/C=C2/C(=O)Nc3ccccc32)cc1
AC50: 6.73 µM

C=C(CC1([C@@H](NP(=O)(c2ccccc2)c2ccccc2)[C@H]2C[C@@H]2CCCC)CC1)c1ccccc1
AC50: 4.57 µM

CCc1ccc(N2C(=O)NC(=O)/C(=C\C=C\c3ccco3)C2=O)cc1
AC50: 3.72 µM

Cc1cccc(-n2cc(CN(C)Cc3nccn3C)c(-c3cccc(F)c3)n2)c1
AC50: 15.5 µM

NS(=O)(=O)c1ccc(NC(=O)COC(=O)c2c3c(nc4ccccc24)/C(=C\c2ccc4c(c2)OCO4)CCC3)cc1
AC50: 6.87 µM

C[C@@H]1O[C@@H](O[C@H]2C[C@@H](O)[C@]3(CO)[C@H]4[C@H](O)C[C@]5(C)[C@@H](C6=CC(=O)OC6)CC[C@]5(O)[C@@H]4CC[C@]3(O)C2)[C@H](O)[C@H](O)[C@H]1O
AC50: < 0.16 µM

Cc1cc(C)n(Cc2ccc(NC(=O)c3ccc(COc4ccccc4Br)cc3)cc2)n1
AC50: 3.03 µM

Cc1nc(NCc2ccco2)c2c(C)c(C)sc2n1
AC50: 5.22 µM

CCC/C(=C1/c2ccccc2C(=O)N1c1ccccc1)c1ccc2c(c1)OCCO2
AC50: 4.08 µM

CC12CCC(C/C1=N\N=C1\NC(=O)/C(=C\c3ccc(Cl)cc3)S1)C2(C)C (stereo unspecified)
AC50: 3.25 µM

COc1ccc(N=C2NN=C(c3c(C)[nH]c4ccccc34)CS2)cc1
AC50: 7.77 µM

CC(C)(C)[C@H](N)C(=O)N[C@H]1CCC2C3CC=C4C[C@@H](O)CC[C@]4(C)C3CC[C@@]21C (stereo partly specified)
AC50: 7.74 µM

CCC(C)Sc1cccc(-c2nc3cc(C)ccn3c2NCc2ccccc2)c1 (stereo unspecified)
AC50: 4.89 µM

Cc1cccc2c1NC(=O)/C2=C\C(=O)c1cccs1
AC50: 6.66 µM

CCCOC(=O)C(=O)NNc1ccccc1
AC50: 1.81 µM

O=C(CCN1Cc2ccccc2C1)c1ccc2c(c1)OCCO2
AC50: 15.1 µM

CCOC(=O)C1=C(C)NC(C)=C(C(=O)OCC)C1c1ccccc1/C=C/C(=O)OC(C)(C)C
AC50: 4.67 µM

Cc1cccc(OCCNc2cc(N3CCN(C)CC3)ccc2[N+](=O)[O-])c1
AC50: 5.34 µM

COc1cc(/C=C/c2[nH]c(=O)[nH]c(=O)c2[N+](=O)[O-])ccc1OCCC(C)C
AC50: 7.14 µM

COc1cc(/C=N/O)cc(Br)c1OCc1cccc(Cl)c1
AC50: 6.68 µM

CC(C)[C@@H]1CC[C@@H](C)c2c(-c3ccccc3)n[nH]c21
AC50: 6.38 µM

CS(=O)(=O)c1ccc(C(=O)OCC(=O)NC23CC4CC(CC(C4)C2)C3)cc1[N+](=O)[O-]
AC50: 2.39 µM

O=C1c2c(Br)c(Br)c(Br)c(Br)c2C(=O)N1c1ccccn1
AC50: 3.65 µM
